From article PMC11640836, “Aminomethylmorpholino Nucleosides as Novel Inhibitors of PARP1 and PARP2: Experimental and Molecular Modeling Analyses of Their Selectivity and Mechanism of Action” (International Journal of Molecular Sciences, 2024)
Read-outs that look alike come from different tables or passages of the source.

Legend:
PARP2 [1] = biological target: T1, PARP2 (Mus musculus, UniProt O88554); assay: PARP2 autopoly(ADP-ribosyl)ation (autoPARylation) enzyme assay with [32P]NAD+; assay type: biochemical, murine; details: for remaining activity at 1000 µM: 5 min, 1 mM compound, autoPARylation reaction, read-out: Residual catalytic activity of PARP2 in the presence of a 1 mM compound
T1 construct: made in house; host or cells: insect cells
Description: (§1) Human recombinant poly(ADP-ribose) polymerase 1 (PARP1) and murine poly(ADP-ribose) polymerase 2 (PARP2) were expressed in insect cells and purified as previously described. Radioactively labeled [^32P]NAD^+ was synthesized from [α-^32P]ATP, according to the previously developed method. The reaction of autopoly(ADP-ribosyl)ation was performed as follows. For PARP1, the reaction mixture contained 50 mM of Tris-HCl, a pH of 8.0, 10 mM of MgCl2, 150 mM of NaCl, 7 mM of β-mercaptoethanol, 2 A260/mL of activated DNA, 0.3 mM of [^32P]NAD^+, and 1 of the tested compounds. The reaction was initiated by adding PARP1 up to 200 nM, and the reaction mixtures were incubated at 37 °C for 2 min. For PARP2, the reaction mixture contained 50 mM of Tris-HCl, a pH of 8.0, 3 mM of spermine, 150 mM of NaCl, 7 mM of β-mercaptoethanol, 2 A260/mL of activated DNA, 0.6 mM of [^32P]NAD^+, and 1 of the tested compounds. The reaction was initiated by adding PARP2 up to 800 nM, and the reaction mixtures were incubated at 37 °C for 5 min. The tested compounds were added at six fixed concentrations, specified for each of them. The reaction was stopped by dropping 10 µL aliquots onto Whatman 1 filter papers soaked in 5% trichloroacetic acid (TCA). The filters were washed 4 times with 150 mL of 5% TCA and dried in the air after the removal of TCA with 90% ethanol. The introduction of radioactivity into the reaction product was quantified using a Typhoon FLA 9500 imager (GE Healthcare, Chicago, IL, USA). The half-maximal inhibitory concentration (IC50) values were determined using a six-point concentration response curve in three independent experiments.

PARP1 [2] = biological target: T2, PARP1 (Homo sapiens, UniProt P09874); assay: PARP1 autopoly(ADP-ribosyl)ation (autoPARylation) enzyme assay with [32P]NAD+; assay type: biochemical; details: for IC50: 0.3 mM [32P]NAD+, means ±SDs of three independent experiments, read-out: IC50, PARP1 activity in the autoPARylation reaction
T2 construct: made in house; host or cells: insect cells
Description: as §1

[3] = system: HeLa cell line (cervical cancer); assay: Cell culture cytotoxicity assay (EZ4U/MTT), compounds alone and combined with hydrogen peroxide; details: for Effect (H2O2 + PARP inhibitor combo): Hela
Description: The cytotoxicity of the compounds and their combinations with a DNA damaging agent were examined against human cells from the HeLa cell line (cervical cancer) using an EZ4U/MTT colorimetric test (Biomedica, Vienna, Austria). […] The cells were grown in 96-well plates in DMEM medium (Gibco, Thermo Fisher Scientific, Waltham, MA, USA), with 1x GlutaMAX (Gibco, Thermo Fisher Scientific, Waltham, MA, USA), 50 IU/mL penicillin, 50 μg/mL streptomycin (MP Biome-dicals, Santa Ana, CA, USA), and in the presence of 10% fetal bovine serum (Biolot, Saint Petersburg, Russia) in a 5% CO2 atmosphere. After the formation of a 30–50% monolayer, the tested compounds were added to the medium to final concentrations specified in Figure 2 and Figure S4, and the cell culture was monitored for 3 days. […] The combination index (CI) values were calculated using CompuSyn software version 1.0.

PARP1 [4] = biological target: T2, PARP1; assay: Steady-state kinetic analysis of the PARP1 enzymatic reaction; assay type: biochemical; details: for Type of inhibition: Vmax decreased, KM increased
Description: The four efficient inhibitors of PARP1 (compounds 8, 12, 13, and 14) were further examined by detailed kinetic experiments to determine the type of inhibition and the inhibition constants. […] The kinetics experiments of the PARylation reaction were performed at varied concentrations of the NAD^+ substrate and three–four different fixed concentrations of the inhibitor. The kinetic parameters of the reaction (Vmax and KM) were calculated by fitting the Michaelis–Menten equation to the kinetic data. The type of inhibition was determined by analyzing the dependences of Vmax and KM on the concentration of the inhibitor in linearizing coordinates (Figure S3). All the compounds had decreased Vmax and increased KM values as the inhibitor concentration increased (panels A−E), indicating a mixed type of inhibition, which was further evidenced by the double reciprocal plots of kinetic data (panel F). From these experiments, the inhibition constants reflecting the affinity of inhibitors to the NAD^+ binding pocket of free enzymes were determined (Table 2).
To determine the apparent maximum rate of enzymatic reaction (Vmax), Michaelis constant (KM), and possible inhibition mechanism, steady-state kinetic experiments were performed at […] fixed concentrations of the substrate, in the absence and presence of different fixed concentrations of the inhibitor. The standard reaction mixtures (10 μL) contained 100 μM, 300 μM, 500 μM, 1 mM, or 2 mM NAD^+; a tested PARP1/PARP2 inhibitor specified for each compound (Figure S3); the recombinant human enzyme PARP1 (200 nM) or murine PARP2 (800 nM); and reaction buffer components (specified in the previous subsection). The reaction was performed as described in the previous subsection. The raw data (kinetic curves) were obtained in three independent experiments and statistically processed with OriginPro 8.6.0 software. […]
F) Graphical representation in double reciprocal plots. The inhibitor concentrations (µM) are indicated right to each panel.
Figure S3. Graphical representation of inhibition type determination for PARP1 and PARP2 with selected compounds.
The Ki and Ki(2) values presented in Table 2 in the main text and Table S1 were calculated using the equations:
Ki = Ci⁄ Ki (2) = CiV Vmax ∗ൗ−1
ቂ(Vmax Km )൘ቃ(Vmax ∗ Km ∗)⁄ −1 where Vmax (Vmax*) – maximal reaction velocity in th e absence (presence) of inhibitor; Km (Km*) – Michaelis constant in the absence (presence) of inhibitor; Ci – the inhibitor concentration.
(also on this page, place not known: Ci )⁄ (Vmax ∗ )⁄൘ቃ − Ki(2) Ci V ∗ൗ− 1 the Vmax KM 3000 0 1 0 250 [ 32 P]ADP-ribose, counts x 10 -3 NAD + ,)
(1 picture or pasted object on this page, not shown here)

[5] = biological target: T3, PARP2 (supplemented with HPF1 or not) (Mus musculus, UniProt O88554); assay: PARP2 inhibition in the absence and presence of HPF1 (automodification, SDS-PAGE); assay type: biochemical, murine; details: 500 nM PARP2, 1 µM HPF1
T3 construct: made in house; host or cells: insect cells (PARP2)
Description: PARP1/PARP2 autopoly(ADP-ribosyl)ation was performed in a standard 20 μL reaction mixture containing 50 mM of Tris-HCl, a pH of 8.0, 100 mM of NaCl, 10 mM of MgCl2, 1 mM of DTT, 10 µM of [^32P]NAD^+, 1 µM of gap-DNA (a 32-mer duplex with a medially located 1-nucleotide gap), 500 nM of PARP1/PARP2 (supplemented with 1 µM of HPF1 or not), and an inhibitor of interest at concentrations specified in Figure 4 and Figure S7. The reaction was initiated by adding a mixture of [^32P]NAD^+ and DNA to a protein-inhibitor mixture pre-assembled on ice. After incubating the mixtures at 37 °C for the indicated time periods, the reactions were terminated by the addition of an SDS-PAGE sample buffer and heating for 2 min at 90 °C. The reaction products were analyzed using 10% SDS-PAGE with the subsequent phosphor imaging of a Coomassie brilliant blue stained gel. Protein bands labeled with [^32P]ADP-ribose were quantified using Quantity One 4.6.7 Basic software. The residual activity (%) was determined as the level of PARP automodification in the presence of an inhibitor normalized to the respective level in the control sample containing no inhibitor.

PARP2 [6] = details: cited from earlier work
PARP1 [7] = details: cited from earlier work
PARP2 [8] = assay: fluorescence anisotropy; details: 800 nM olaparib; 50 mM NaCl, 50 mM Tris-HCl pH 8.0, 4 mM DTT; 25 nM FAM-DNA, 20-200 nM PARP1 or 20-800 nM PARP2; mixed on ice, 10 min at room temperature
PARP1 [9] = assay: fluorescence anisotropy; details: 400 nM olaparib; 50 mM NaCl, 50 mM Tris-HCl pH 8.0, 4 mM DTT; 25 nM FAM-DNA, 20-200 nM PARP1 or 20-800 nM PARP2; mixed on ice, 10 min at room temperature
[10] = mixed-type inhibition, read-out: Ki (affinity for the free enzyme)
[11] = read-out: Ki(2) (affinity for the enzyme complex with NAD+ substrate)

T1 sequence (O88554 whole entry): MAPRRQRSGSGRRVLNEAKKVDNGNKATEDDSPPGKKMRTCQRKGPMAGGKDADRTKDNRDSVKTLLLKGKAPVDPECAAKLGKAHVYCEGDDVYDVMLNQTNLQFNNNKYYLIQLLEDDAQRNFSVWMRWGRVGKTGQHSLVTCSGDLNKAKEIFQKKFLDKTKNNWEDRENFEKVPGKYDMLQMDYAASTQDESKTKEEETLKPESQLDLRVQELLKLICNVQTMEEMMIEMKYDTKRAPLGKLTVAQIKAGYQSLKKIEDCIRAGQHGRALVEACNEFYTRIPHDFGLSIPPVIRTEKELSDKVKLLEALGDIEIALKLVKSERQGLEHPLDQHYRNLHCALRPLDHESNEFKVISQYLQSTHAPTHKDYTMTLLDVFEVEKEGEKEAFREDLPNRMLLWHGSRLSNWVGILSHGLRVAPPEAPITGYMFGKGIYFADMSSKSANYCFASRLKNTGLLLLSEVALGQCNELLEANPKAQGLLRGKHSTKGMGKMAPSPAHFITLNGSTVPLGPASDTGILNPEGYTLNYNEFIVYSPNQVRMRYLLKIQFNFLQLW
T2 sequence (P09874 whole entry): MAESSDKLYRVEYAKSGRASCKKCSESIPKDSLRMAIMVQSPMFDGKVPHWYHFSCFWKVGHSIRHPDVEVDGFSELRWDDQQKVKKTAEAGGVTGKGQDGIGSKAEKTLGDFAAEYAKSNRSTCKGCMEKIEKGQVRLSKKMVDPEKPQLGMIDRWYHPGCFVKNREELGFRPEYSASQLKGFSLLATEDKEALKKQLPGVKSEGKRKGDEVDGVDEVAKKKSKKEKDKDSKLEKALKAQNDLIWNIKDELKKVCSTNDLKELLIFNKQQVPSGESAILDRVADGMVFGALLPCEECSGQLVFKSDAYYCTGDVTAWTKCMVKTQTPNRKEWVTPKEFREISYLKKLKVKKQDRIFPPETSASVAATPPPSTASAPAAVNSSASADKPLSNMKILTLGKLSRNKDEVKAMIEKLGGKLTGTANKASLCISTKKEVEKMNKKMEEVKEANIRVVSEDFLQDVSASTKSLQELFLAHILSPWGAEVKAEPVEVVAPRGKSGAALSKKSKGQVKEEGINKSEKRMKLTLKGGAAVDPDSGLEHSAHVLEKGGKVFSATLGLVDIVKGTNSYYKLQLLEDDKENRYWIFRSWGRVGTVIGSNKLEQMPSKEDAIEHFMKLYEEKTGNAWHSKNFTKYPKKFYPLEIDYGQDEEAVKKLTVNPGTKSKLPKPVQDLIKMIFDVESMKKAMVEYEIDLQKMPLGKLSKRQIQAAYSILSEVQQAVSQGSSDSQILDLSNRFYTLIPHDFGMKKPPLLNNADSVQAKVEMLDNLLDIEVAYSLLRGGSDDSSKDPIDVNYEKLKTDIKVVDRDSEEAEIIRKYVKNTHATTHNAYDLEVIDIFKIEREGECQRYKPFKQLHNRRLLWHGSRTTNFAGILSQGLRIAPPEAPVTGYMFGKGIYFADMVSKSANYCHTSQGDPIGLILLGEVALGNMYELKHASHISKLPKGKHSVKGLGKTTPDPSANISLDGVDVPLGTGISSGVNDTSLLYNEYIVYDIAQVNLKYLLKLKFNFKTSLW
T3 sequence (O88554 whole entry): as the sequence (O88554 whole entry) above

NC[C@@H]1CNC[C@H](n2cnc3c(=O)[nH]c(N)nc32)O1 [Compound 9]
remaining activity at 1000 µM (PARP2 [1]): > 30% | Residual catalytic activity of PARP1 in the presence of a 1 mM compound (PARP1 [2]; autoPARylation reaction): >30%

NC[C@@H]1CNC[C@H](n2ccc(N)nc2=O)O1 [Compound 10]
remaining activity at 1000 µM (PARP2 [1]): > 30% | Residual catalytic activity of PARP1 in the presence of a 1 mM compound (PARP1 [2]; autoPARylation reaction): >30% | Effect (H2O2 + PARP inhibitor combo) ([3]; H2O2 30 μM + inhibitor 100 μM): 0.29 | Effect (H2O2 + PARP inhibitor combo) ([3]; H2O2 30 μM + inhibitor 800 μM): 0.23 | Effect (H2O2 + PARP inhibitor combo) ([3]; H2O2 50 μM + inhibitor 100 μM): 0.32 | Effect (H2O2 + PARP inhibitor combo) ([3]; H2O2 50 μM + inhibitor 800 μM): 0.26 | Effect (H2O2 + PARP inhibitor combo) ([3]; H2O2 90 μM + inhibitor 100 μM): 0.45 | Effect (H2O2 + PARP inhibitor combo) ([3]; H2O2 90 μM + inhibitor 800 μM): 0.51 | Effect (H2O2 + PARP inhibitor combo) ([3]; H2O2 150 μM + inhibitor 100 μM): 0.66 | Effect (H2O2 + PARP inhibitor combo) ([3]; H2O2 150 μM + inhibitor 800 μM): 0.64 | Effect (H2O2 + PARP inhibitor combo) ([3]; H2O2 250 μM + inhibitor 100 μM): 0.78 | Effect (H2O2 + PARP inhibitor combo) ([3]; H2O2 250 μM + inhibitor 800 μM): 0.87

NC[C@@H]1CNC[C@H](n2ccc(=O)[nH]c2=O)O1 [Compound 11]
remaining activity at 1000 µM (PARP2 [1]): > 30% | IC50 (PARP1 [2]): 420 ± 66 µM

NC[C@@H]1CNC[C@H](n2cc(Cl)c(=O)[nH]c2=O)O1 [Compound 12, aminomethylmorpholino 5-Cl-uracil nucleoside]
Type of inhibition (PARP1 [4]): mixed-type inhibition | Ki (PARP1 [4]; [10]): 79 ± 6 µM | Ki (PARP1 [4]; [11]): 300 ± 60 µM | remaining activity at 1000 µM (PARP2 [1]): > 30% | IC50 (PARP1 [2]): 45 ± 5 µM | Selectivity for PARP1 over PARP2 (IC50 comparison) (PARP1 [2]; autoPARylation reaction): highly selective PARP1 inhibitor

NC[C@@H]1CNC[C@H](n2cc(Br)c(=O)[nH]c2=O)O1 [Compound 13]
Type of inhibition (PARP1 [4]): mixed-type inhibition | Ki (PARP1 [4]; [10]): 25 ± 4 µM | Ki (PARP1 [4]; [11]): 130 ± 30 µM | IC50 (PARP2 [1]; 0.6 mM [32P]NAD+, means ±SDs of three independent experiments, read-out: IC50, PARP2 activity in the autoPARylation reaction): 250 ± 37 µM | IC50 (PARP1 [2]): 30 ± 3 µM | Impact of HPF1 on the inhibition potency against PARP2 [5]: no impact of HPF1

O=C(c1cc(Cc2n[nH]c(=O)c3ccccc23)ccc1F)N1CCN(C(=O)C2CC2)CC1 [olaparib, reference compound]
IC50 (PARP2 [6]): […] | Effect (H2O2 + PARP inhibitor combo) ([3]; H2O2 30 μM + inhibitor 30 μM): 0.32 | Effect (H2O2 + PARP inhibitor combo) ([3]; H2O2 30 μM + inhibitor 50 μM): 0.42 | Effect (H2O2 + PARP inhibitor combo) ([3]; H2O2 50 μM + inhibitor 30 μM): 0.51 | Effect (H2O2 + PARP inhibitor combo) ([3]; H2O2 50 μM + inhibitor 50 μM): 0.5 | Effect (H2O2 + PARP inhibitor combo) ([3]; H2O2 90 μM + inhibitor 30 μM): 0.6 | Effect (H2O2 + PARP inhibitor combo) ([3]; H2O2 90 μM + inhibitor 50 μM): 0.7 | Effect (H2O2 + PARP inhibitor combo) ([3]; H2O2 150 μM + inhibitor 30 μM): 0.85 | Effect (H2O2 + PARP inhibitor combo) ([3]; H2O2 150 μM + inhibitor 50 μM): 0.9 | Effect (H2O2 + PARP inhibitor combo) ([3]; H2O2 250 μM + inhibitor 30 μM): 0.96 | Effect (H2O2 + PARP inhibitor combo) ([3]; H2O2 250 μM + inhibitor 50 μM): 0.98 | Effect on the cytotoxicity of hydrogen peroxide ([3]; Hela cells, MTT test, H2O2 30 to 250 μM): enhanced the cytotoxic effects of hydrogen peroxide

Cc1cn([C@@H]2O[C@H](CO)[C@@H](O)[C@H]2O)c(=O)[nH]c1=O [rThd]
IC50 (PARP2 [6]): 374 µM | IC50 (PARP1 [7]): 277 µM

FAM gap-DNA (32-mer duplex, 1-nt gap)
binding signal (fold increase of EC50 vs no inhibitor) (PARP2 [8]): 1.6 | binding signal (fold increase of EC50 vs no inhibitor) (PARP1 [9]): 1.8
